# PMC12378621, “Benzo-ring modification on Malaria Box hit MMV008138: effects on antimalarial potency and microsomal stability” (RSC Medicinal Chemistry, 2025)
# Several values for one entry are separate records, joined by “and”; a condition that tells them apart may be missing. Equal values may be shown once. Read-outs that look alike come from different tables or passages of the source.
# Experiments:
# P. falciparum IspD = system: P. falciparum IspD; design: method as in PMID 26783558; settings: cited from earlier work
# in vitro = settings: male, mouse, microsomes
# Protocol: Metabolic stability of 1 was studied in pooled male mouse liver microsomes (final concentration 0.5 mg/mL, 5 mM MgCl 2, 100 mM phosphate buffer). The final concentration of test […]
# The mixture was pre-warmed 37°C for 5 min before addition of 50 μL of 10 mM NADPH solution at the final concentration of 1 mM and carried out at 37°C. 50 μL of ultra-pure H2O was used instead of NADPH solution in the […]
# negative control. […] Drug […]
# concentrations were determined using triple quad LC-MS (Table S5).
# (§1) (1 picture or pasted object on this page, not shown here)
# [1] = system: P. falciparum (Dd2 strain); settings: SYBR Green I, 72 h endpoint; previously reported; read-out: Dd2 strain P. falciparum growth inhibition EC50; cited from earlier work
# [2] = system: P. falciparum (Dd2 strain); design: method as in PMID 25754494; settings: drug at 2.5 μM; previously reported; cited from earlier work
# [3] = system: Plasmodium berghei ANKA expressing luciferase (PbGFP-Luccon); test: In vivo efficacy in P. berghei-infected mice (luminescence on Day 7)
# Protocol: 2. In vivo efficacy studies of 1 (NYU) in P. berghei-infected mice (po and iv) Efficacy of 1 in P. berghei-infected mice was assessed at the Anti-Infectives Core Facility, Department of Microbiology, Grossman School of Medicine, New York University.
# A. Oral Administration Protocol
# Three groups of five female Swiss Webster mice weighing 25 to 30 g were used for vehicle […]
# berghei ANKA expressing luciferase (PbGFP-Luccon) obtained from a donor infected mouse.10 […]
# 2 to 6 and imaged on day 7.
# Figure S1. Dosing and imaging timeline of P. berghei-infected mice. […]
# Day 7 as described in the text.
# The vehicle for all groups was 0.5% (hydroxypropyl)methyl cellulose, 0.5% Tween-80.
# For the surviving mice, o n day 7 after infection, mice were anesthetized by inhalation of isofluorane and injected via i.p. with 150 mg/kg of luciferase substrate dissolved in PBS (D-Luciferin Potassium Salt , Gold Biotechnology ).
# Mice were imaged 5 to 10 min after inj ection of luciferin using an IVIS imager (Lumina II In Vivo Imaging System; Perkin -Elmer). The data acquisition and analysis were performed with LivingImage (Xenogen). Accumulated light intensity was measured in each mouse to determine the baseline infection levels before treatment .
# as §1
# B. IV Administration Protocol
# One group of four female Swiss Webster mice weighing 25 to 30 g were used for vehicle control, and groups of five mice were used for 1 treatment (IV, 2 x 30 mg/kg/d) and the positive […]
# On Day 0, mice were infected via intraperitoneal (i.p.) […]
# from a donor infected mouse. 10 As shown below in Figure S2 (and legend), mice were treated […]
# Figure S2. Dosing and imaging timeline of P. berghei-infected mice. Vehicle and 1 (30 mpk) treatments were administered IV twice -daily on Days 2-6. […]
# administered i .p. once-daily. Mice were imaged on Day 7, as described in the text.
# The vehicle for this study was 30%PEG, 40% Captisol (30%w/v solution).
# Table S2. Luminescence Data after background subtraction for IV dosing of Vehicle, 1, and IP […]
# Table S9. Concentration of 20c vs time in mice. […]
# Figure S6. Dosing and imaging timeline of P. berghei-infected mice. […]
# [4] = system: P. falciparum (Dd2 strain); test: ABS P. falciparum growth inhibition, SYBR Green I assay, 72 h endpoint; format: cell-based, Plasmodium falciparum; settings: Plasmodium falciparum, DD2; control in growth inhibition / IPP rescue assays; read-out: EC50 of MMV008138 used as control
# Protocol: Parasites were maintained in O-positive human erythrocytes (Grifols, Memphis, TN, USA) at 5% hematocrit in RPMI 1640 medium supplemented with 5 g L^−1 Albumax I (Gibco Life Technologies), 2 g L^−1 glucose (Sigma-Aldrich), 2.3 g L^−1 sodium bicarbonate (Sigma-Aldrich), 370 μM hypoxanthine (Sigma-Aldrich), 25 mM HEPES, and 20 mg L^−1 gentamicin (Gibco Life Technologies). The parasites were kept at 37 °C under reduced-oxygen conditions (5% CO2, 5% O2, and 90% N2).
# […]. MMV008138 (1) was used as control. The percentage of growth was normalized to that of untreated control parasites in the presence of 0.1% DMSO. Background determinations were made using uninfected erythrocytes. Two or more independent experiments in duplicate were performed. The EC50 values were calculated with GraphPad Prism 9 (GraphPad Software Ltd.) using nonlinear regression curve fitting with variable slope (four parameters) and represent the average and their standard error of the mean (S.E.M.). To assess whether 20a–e specifically targeted the apicoplast, the recovery of growth in the presence of inhibitor and isopentenyl diphosphate (IPP) was performed as described previously.[8] Briefly, parasites were grown in the presence or absence of 200 μM IPP along with a serial dilution (10 μM to 0.01 μM) or single concentration (10 or 20 μM) of drug. […] All conditions were set in 96-well half area plates using highly synchronous ring-stage parasite cultures (100 μL per well at 1% hematocrit and 1% parasitemia) and incubated for 72 h under normal culture conditions. Parasite growth was measured by the SYBR green I assay.
# in vivo = settings: mouse
# Protocol: 3. Pharmacokinetics of 1 in mice
# Pharmacokinetic analysis of 1 in mice was performed by Pharmaron (Beijing, China). Three mice each (23 ± 1 g) were used for oral (40 mg/kg, gavage, conscious) and for IV (10 mg/kg, lateral tail vein with anesthesia) administration. The vehicle for both routes wa s 20% DMSO, 60% PEG400 and 20% SBE-β-CD (30% w/v) in water. Stock concentrations were 4 mg/mL (both oral and IV respectively), and mice were dosed at 10.0 and 2.5 mL/kg (oral and IV respectively).
# Quantitation was performed by triple-quad LC-MS.
# P. vivax IspD = system: P. vivax IspD; design: method as in PMID 26783558; settings: cited from earlier work
# [5] = Table S2, Days 2-6, imaged Day 7, Cmpd 1 30 mg/kg 2 x daily IV, CQ 20 mg/kg 1 x daily i.p.
# [6] = iv, 10 mg/kg, plasma concentration
# [7] = po, 40 mg/kg, plasma concentration
smiles,measurement,setting,value
"O=C(O)[C@@H]1Cc2c([nH]c3ccccc23)[C@@H](c2ccc(Cl)cc2Cl)N1 [Compound 1, reference compound]",IC50,P. falciparum IspD,47 nM
same,half-life at 1 µM,in vitro,~0.167 h
same,% remaining at 60 min,"in vitro; 1 h, 1 µM",103.9%
same,EC50,[1],250 ± 70 nM
same,% recovery (200 μM IPP),[2],100%@2.5 μM ^c
same,reduction in parasitemia,"[3]; P. berghei mouse model, IV dosing",no reduction in parasitemia
same,reduction in parasitemia / efficacy,"[3]; P. berghei mouse model, oral dosing (20c 5 × 40 mg per kg per day)",no reduction in parasitemia
same,"Live/Dead and luminescence, individual mice","[3]; Table S1, oral 1 x daily Days 2-6, imaged Day 7, Cmpd 1 45 mg/kg, CQ 20 mg/kg",Dead by Day 6 and Dead by Day 7 and 1.33E+06
same,Luminescence after background subtraction AVG,[3]; [5],1.39E+06
same,"Luminescence after background subtraction, individual mice",[3]; [5],9.49E+05 and 1.50E+06 and 1.72E+06 and 2.00E+06 and 7.68E+05
same,treated mice dead by Day 7 (of 5),[3]; oral 45 mg/kg/d Days 2-6,4
same,EC50,[4],170 ± 10 nM
same,AUC(0-inf),"in vivo; iv, 10 mg/kg",38.4 ± 3.8 µM·h
same,AUC(0-t),"in vivo; iv, 10 mg/kg",36.1 ± 3.6 µM·h
same,C0,"in vivo; iv, 10 mg/kg",86 ± 6.6 µM
same,Vd,"in vivo; iv, 10 mg/kg",3.5 ± 0.43 L/kg
same,clearance,"in vivo; iv, 10 mg/kg",12.1 ± 1.3 mL/min/kg
same,tlast,"in vivo; iv, 10 mg/kg",24 h
same,concentration at 24 h,"in vivo; iv, 10 mg/kg, Cmin",0.164 ± 0.017 µM
same,concentration at 0.083 h,in vivo; [6],58.6 ± 5.5 µM
same,concentration at 0.25 h,in vivo; [6],27.1 ± 3.7 µM
same,concentration at 0.5 h,in vivo; [6],14.8 ± 1.9 µM
same,concentration at 1 h,in vivo; [6],4.8 ± 1.7 µM
same,concentration at 2 h,in vivo; [6],1.3 ± 0.4 µM
same,concentration at 4 h,in vivo; [6],0.66 ± 0.04 µM
same,concentration at 8 h,in vivo; [6],0.51 ± 0.03 µM
same,concentration at 24 h,in vivo; [6],0.16 ± 0.02 µM
same,half-life,"in vivo; iv, 10 mg/kg, t1/2",9.9 ± 4 h
same,AUC0-inf,"in vivo; po, 40 mg/kg",88 µM·h
same,AUC(0-inf),"in vivo; po, 40 mg/kg",88 ± 15 µM·h
same,AUC(0-t),"in vivo; po, 40 mg/kg",79 ± 8.9 µM·h
same,Cmax,"in vivo; po, 40 mg/kg",46.1 ± 7.3 µM
same,Tmax,"in vivo; po, 40 mg/kg",0.25 h
same,tlast,"in vivo; po, 40 mg/kg",24 h
same,bioavailability,"in vivo; po, 40 mg/kg, % F",57%
same,bioavailability,"in vivo; po, 40 mg/kg, %F",57 ± 10%
same,concentration at 24 h,"in vivo; po, 40 mg/kg, Cmin",0.65 ± 0.35 µM
same,concentration at 0.25 h,in vivo; [7],46.1 ± 8 µM
same,concentration at 0.5 h,in vivo; [7],28.2 ± 4.1 µM
same,concentration at 1 h,in vivo; [7],12.7 ± 2.7 µM
same,concentration at 2 h,in vivo; [7],5.4 ± 0.31 µM
same,concentration at 4 h,in vivo; [7],3.2 ± 0.25 µM
same,concentration at 8 h,in vivo; [7],2.4 ± 0.45 µM
same,concentration at 24 h,in vivo; [7],0.64 ± 0.35 µM
same,half-life,"in vivo; po, 40 mg/kg, t 1/2",8.5 h
same,half-life,"in vivo; po, 40 mg/kg, t1/2",8.5 ± 0.24 h
same,IC50,P. vivax IspD,310 nM
